Reference: US10695333B2 (NOVARTIS AG, priority 2017, dated 2020)
pIC50: −log10 of the molar value. Where “and” joins values, the source holds several entries; their conditions need not be identical. Equal entries are not always repeated. Marks after values point to notes of the source that are not given here.

Experiments:
[1] = test system: MCF-7 xenograft; experiment: LSZ102 with alpelisib in orthotopic MCF-7 breast cancer model in mice; assay type: in vivo, mouse; details: Day 62
[2] = test system: MCF-7 xenograft; experiment: Dose fractionation study in mice with MCF-7 xenografts; assay type: in vivo, mouse; details: for Tumor response Regression / Tumor response ΔT/ΔC: Day 61
[3] = test system: HBRX1298 xenograft; experiment: ER+ primary breast cancer model HBRX1298 in NSG mice; assay type: in vivo, mouse; details: Day 63
Description: HBRX1298 tumors were established in NSG female mice by injection of a tumor brei into the inguinal mammary fat pad area. Mice were implanted with 0.72 mg estradiol/90-day release pellets several days prior to cell implantation. […] The 80 mg/kg QD dose inhibited tumor volumes close to the extent observed in mice with estradiol pellet removal (% ΔT/ΔC=32% and 21%, respectively; p<0.05).

[4] = test system: MCF-7 xenograft; experiment: Orthotopic MCF-7 xenograft model in NSG mice; assay type: in vivo, mouse; details: for Tumor response in words: LSZ102 20 mg/kg QD, tamoxifen 60 mg/kg, fulvestrant 5 mg/mouse
Description: Mice were supplemented with estradiol (0.72 mg estradiol/90-day release pellets) to further support MCF-7 tumor growth several days prior to cell implantation.

[5] = biological target: T1, ERα (Homo sapiens, UniProt P03372); details: MCF-7 parental cells, 24 hr treatment
T1 sequence (P03372 1-595): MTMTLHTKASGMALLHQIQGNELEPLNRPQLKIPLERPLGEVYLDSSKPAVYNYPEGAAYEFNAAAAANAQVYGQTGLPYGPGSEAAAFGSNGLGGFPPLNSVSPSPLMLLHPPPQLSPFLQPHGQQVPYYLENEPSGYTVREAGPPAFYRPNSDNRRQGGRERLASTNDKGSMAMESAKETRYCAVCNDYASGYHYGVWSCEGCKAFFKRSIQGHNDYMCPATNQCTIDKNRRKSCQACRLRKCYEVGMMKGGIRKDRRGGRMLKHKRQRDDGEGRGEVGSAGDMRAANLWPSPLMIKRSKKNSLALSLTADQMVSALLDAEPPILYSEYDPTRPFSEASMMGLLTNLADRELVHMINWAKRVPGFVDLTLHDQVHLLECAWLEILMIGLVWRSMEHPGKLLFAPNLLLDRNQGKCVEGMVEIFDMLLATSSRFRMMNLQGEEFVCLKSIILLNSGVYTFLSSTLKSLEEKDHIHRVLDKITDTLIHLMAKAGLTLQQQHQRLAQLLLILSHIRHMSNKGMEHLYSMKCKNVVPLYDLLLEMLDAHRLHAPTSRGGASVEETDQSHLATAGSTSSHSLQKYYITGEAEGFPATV

[6] = test system: MCF-7 parental (ER wildtype) cells; experiment: cells; details: Homo sapiens, MCF7, 168 h, read-out: MCF-7 proliferation Ave IC50, ESR1 WT
Description: Cell viability was determined by CellTiter-Glo (CTG) assay after 7 days of compound treatment. […] IC50 nM values were calculated using the XLfit software and are defined as the inflection point of the fitted inhibition curves.

[7] = clinical; details: human, in vivo
Text: Secondary objectives are to evaluate preliminary anti-tumor activity and looking at overall response rate (ORR), duration of response (DOR), progression-free survival (PFS), disease control rate (DCR), pharmacokinetics (PK) and pharmacodynamics (PD).

[8] = test system: advanced or metastatic ER+ breast cancer; experiment: Phase I/Ib study, anti-tumor activity; assay type: in vivo, human
Text: (§1) Eligible patients, ≥18 years old, have histologically confirmed ER+ breast cancer that has progressed after endocrine therapy for metastatic or locally advanced disease or recurrence while on, or within 12 months of the end of adjuvant treatment with an aromatase inhibitor. […] As of Jul. […] As of Jul. 23, 2018, 13 patients continued ongoing treatment and 3 patients discontinued due to progressive disease.

[9] = Phase I/Ib study, safety and tolerability; assay type: in vivo, human
Text: as §1

[10] = test system: ER target genes GREB1 and PGR; experiment: qRT-PCR of ER target genes in MCF-7 WT cells
[11] = test system: ER regulated transcripts GREB1 and PGR; experiment: GREB1 and PGR mRNA in MCF-7 tumors after final dose; assay type: in vivo, mouse; details: higher dose levels, tumors collected 24 hours after final treatment on day 61, normalized to B2M
Text: Data is plotted for individual animals and is normalized to expression of beta-2 microglobulin (B2M).

[12] = 60 mg/kg PO QD x 5 days x QWeek, Day 48
[13] = All LSZ102 single agent arm patients, evaluable n = 72
[14] = LSZ102 single agent arm (n = 74)
[15] = All Arm A treatment period patients (N = 73)

Cc1nc(NC(=O)N2CCC[C@H]2C(N)=O)sc1-c1ccnc(C(C)(C)C(F)(F)F)c1 [BYL719, reference compound]
Tumor response ΔT/ΔC ([1]; BYL719 20 mg/kg QD PO): 38%

CC/C(=C(\c1ccccc1)c1ccc(OCCN(C)C)cc1)c1ccccc1 [Tamoxifen, reference compound]
Tumor response Regression ([2]; 60 mg/kg PO 5QW): 11* %
Tumor response ΔT/ΔC ([2]; 60 mg/kg PO 5QW): −4* %
Tumor response ΔT/ΔC ([3]; 40 mg/kg PO QD): 59%
Tumor response Regression [4, 12]: 1* %
Tumor response ΔT/ΔC [4, 12]: −0.8* %
Tumor response in words [4]: tumor stasis

C[C@]12CC[C@@H]3c4ccc(O)cc4C[C@@H](CCCCCCCCC[S+]([O-])CCCC(F)(F)C(F)(F)F)[C@H]3[C@@H]1CC[C@@H]2O (some centres unmarked) [Fulvestrant, reference compound]
Tumor response ΔT/ΔC ([2]; 5 mg/mouse SC QWeek): 18* %
ER protein levels (immunoblot) [5]: significantly reduce ER protein levels
Tumor response ΔT/ΔC ([3]; 5 mg/mouse SC QWeek): 48* %
pIC50 [6]: 8.59
Tumor response ΔT/ΔC ([4]; 5 mg/mouse SC QWeek, Day 48): 24* %
Tumor response in words [4]: suppression of growth

CC(F)(F)c1cc(F)ccc1-c1sc2cc(O)ccc2c1Oc1ccc(/C=C/C(=O)O)cc1 [LSZ102, (E)-3-(4-((2-(2-(1,1-difluoroethyl)-4-fluorophenyl)-6-hydroxybenzo[b]thiophen-3-yl)oxy)phenyl)acrylic acid]
Increase in exposure (AUC) with high fat, high calorie meal compared to fasted [7]: ~2 fold
Exposure versus dose ([7]; po): dose-proportional increases in LSZ102 exposure
Tmax ([7]; po): 2 to 3 h
half-life ([7]; po): 3.1 to 5.6 h
Tumor response ΔT/ΔC ([2]; 5 mg/kg PO BID): 11* %
Tumor response ΔT/ΔC ([2]; 10 mg/kg PO BID): −1* %
Tumor response ΔT/ΔC ([2]; 10 mg/kg PO QD): 16* %
Tumor response Regression ([2]; 20 mg/kg PO QD): 5* %
Tumor response ΔT/ΔC ([2]; 20 mg/kg PO QD): −2* %
Tumor response Regression ([2]; 40 mg/kg PO BID): 21* %
Tumor response ΔT/ΔC ([2]; 40 mg/kg PO BID): −8* %
Tumor response Regression ([2]; 80 mg/kg PO QD): 31* %
Tumor response ΔT/ΔC ([2]; 80 mg/kg PO QD): −11* %
Efficacy of QD dosing versus split-dose BID dosing ([2]; MCF-7 xenografts, FIG. 8A): equivalent efficacy
Complete response (CR) [8, 13]: 0 n (%)
Disease control rate (DCR) [8, 13]: 27 (37.5%) n (%)
Non-CR/Non-PD [8, 13]: 7 (9.7) n (%)
Overall response rate (ORR) [8, 13]: 1 (1.4) n (%)
Partial response (PR) [8, 13]: 1 (1.4) n (%)
Progressive disease (PD) [8, 13]: 40 (55.6) n (%)
Response unknown [8, 13]: 6 (8.3) n (%)
Discontinuation due to progressive disease [8, 14]: 59 (79.7) n (%)
Disease control rate ([8]; single-agent LSZ102): 37.5%
DLT alanine aminotransferase increase, number of patients ([9]; 450 mg QD with food group): one
DLT aspartate aminotransferase increase, number of patients ([9]; 450 mg QD with food group): one
DLT vomiting, number of patients ([9]; 600 mg QD fasted group): one
DLT diarrhea, number of patients ([9]; 900 mg QD fasted group): two
Constipation, G1 [9, 15]: 7 (9.6) n (%)
Constipation, G2 [9, 15]: 1 (1.4) n (%)
Constipation, G3 [9, 15]: 0 n (%)
Decrease appetite, G1 [9, 15]: 11 (15.1) n (%)
Decrease appetite, G2 [9, 15]: 2 (2.7) n (%)
Decrease appetite, G3 [9, 15]: 0 n (%)
Diarrhea, G1 [9, 15]: 25 (34.2) n (%)
Diarrhea, G2 [9, 15]: 11 (15.1) n (%)
Diarrhea, G3 [9, 15]: 3 (4.1) n (%)
Fatigue, G1 [9, 15]: 5 (6.8) n (%)
Fatigue, G2 [9, 15]: 3 (4.1) n (%)
Fatigue, G3 [9, 15]: 0 n (%)
Nausea, G1 [9, 15]: 32 (43.8) n (%)
Nausea, G2 [9, 15]: 10 (13.7) n (%)
Nausea, G3 [9, 15]: 2 (2.7) n (%)
Suspected related AEs, Total, G1 [9, 15]: 38 (52.1) n (%)
Suspected related AEs, Total, G2 [9, 15]: 20 (27.4) n (%)
Suspected related AEs, Total, G3 [9, 15]: 7 (9.6) n (%)
Vomiting, G1 [9, 15]: 14 (19.2) n (%)
Vomiting, G2 [9, 15]: 4 (5.5) n (%)
Vomiting, G3 [9, 15]: 1 (1.4) n (%)
Discontinuation due to adverse event [9, 14]: 2 (2.7) n (%)
Tolerability ([9]; oral single agent, doses up to 600 mg QD and up to 300 mg BID): well tolerated
Drug-related diarrhea, any grade ([9]; single agent Arm A): 53.4%
Drug-related nausea, any grade ([9]; single agent Arm A): 60.2%
Drug-related vomiting, any grade ([9]; single agent Arm A): 26.1%
Drug-related Grade 3 vomiting ([9]; single agent Arm A, 1 patient): 1.4%
Drug-related Grade 3 nausea ([9]; single agent Arm A, 2 patients): 2.7%
Drug-related Grade 3 diarrhea ([9]; single agent Arm A, 3 patients): 4.1%
Dose limiting toxicities (DLTs), patients ([9]; single agent, all dose groups, four patients): 5.9%
Patients requiring dose reduction due to AEs ([9]; single agent, all gastrointestinal toxicities): seven
ESR1 mRNA levels [10]: not significantly reduced
mRNA expression of GREB1 and PGR [10]: dose response inhibition
Tumor response ΔT/ΔC ([3]; 20 mg/kg PO QD): 45* %
Tumor response ΔT/ΔC ([3]; 80 mg/kg PO QD): 32%
Tumor response ΔT/ΔC ([1]; LSZ102 10 mg/kg QD PO, 10 mg/kg): 13%
Inhibition of GREB1 and PGR mRNA levels in tumors [11]: stronger inhibition
pIC50 [6]: 8.28
Tumor response ΔT/ΔC ([4]; 1 mg/kg PO QD, Day 48): 56%
Tumor response ΔT/ΔC ([4]; 3 mg/kg PO QD, Day 48): 51%
Tumor response ΔT/ΔC ([4]; 10 mg/kg PO QD, Day 48): 25%
Tumor response ΔT/ΔC ([4]; 20 mg/kg PO QD, Day 48): 2.4% and 2* %
Tumor response in words [4]: tumor stasis was achieved and maintained for 48 days
